According to patent US11066455B2, “Tmem100 peptides and variants thereof and their use in treating or preventing diseases or conditions” (The Johns Hopkins University, priority 2014, dated 2021):
* marks the point of attachment. Myristoyl = CCCCCCCCCCCCCC(=O)*

B1: Tmem100-3Q mutant (full-length, mouse) (protein)
chain: MTEESTKENLGAPKSPTPVTMEKNPKREVVVTTGPLVSEVQLMAATGGAELSCYRCIIPFAVVVFITGIVVTAVAYSFNSHGSIISIFGLVLLSSGLFLLASSALCWKVRQRNKKVQQQESQTALVVNQRCLFA

System: T1, TRPA1
T1 construct: percentage of cells responsive to CA; other: shortened CPP 2 μM; CA 10 μM; HEK293 TRPA1+TRPV1; vs scrambled; percentage of cells responsive to MO; other: peptide 200 nM pre-treatment; 500 nM MO; HEK293T TRPA1+TRPV1; percentage of cells that respond to 100 nM MO and 10 μM CA; other: HEK293T TRPA1+TRPV1, Tmem100-3Q-transfected vs lacki; reduction in the percentage of cells responding to MO
Experiment: Calcium imaging of HEK293T cells expressing TRPA1 and TRPV1 (MO or CA)
Format: cell-based
Experimental: Calcium imaging assays were performed as previously described (Liu et al., 2009). Cells were loaded with 2 μM fura 2-acetomethoxy ester (Molecular Probes) for 30 min in the dark at room temperature or for 45 minutes at 37° C. for DRG and cell lines, respectively. After washing, cells were imaged at 340 and 380 nm excitation to detect intracellular free calcium under a fluorescent microscope (Nikon Eclipse TE2000-S) and Lambda 10B shutter (Sutter Instrument). The cells were bathed in calcium imaging buffer (pH 7.45, 130 mM NaCl, 3 mM KCl, 2.5 mM CaCl2, 10 mM HEPES, 10 mM glucose, 1.2 mM NaHCO3, with sucrose to increase osmolarity to 290 mOsm). The reagents and buffers were applied through a gravity perfusion system at a rate of […], including mustard oil (Sigma 377430), cinnamaldehyde (Sigma C80687), menthol (Sigma M2780), and capsaicin (Sigma M2028). Cells with high baseline 340/380 values (>1.5) were excluded for analysis. For DRG neurons, IB4 staining was performed in the chamber with the dilution of 1:200 (Molecular Probes 121412) for 160 seconds before washing off at the end of each test. Images were processed and analyzed with NIS-Elements BR 2.30 software (Nikon). A responsive cell was defined as one that with greater than a 20% increase in the 340/380 ratio above the baseline. Intracellular calibration for calcium was performed as previously described (Akopian et al., 2007). The data was analyzed with the experimenter blinded to the genotypes or constructs transfected.
DRG from 3 to 4-week old mice were collected in cold DH10 medium (90% DMEM/F-12, 10% FBS, 100 U/ml penicillin, and 100 μg/ml Streptomycin, Gibco) and treated with enzyme solution in HBSS containing collagenase (1.65 mg/mL, Worthington CLS I) and dispase (3.55 mg/mL, GIBCO 17105-041) at 37° C. for 30 minutes. After trituration and centrifugation, cells were resuspended in DH10, plated on glass coverslips coated with poly-D-lysine (0.5 mg/ml, Stoughton, Mass.) and laminin (10 μg/ml, Invitrogen), and cultured overnight in an incubator at 37° C. The neurons were tested within 24 hours. HEK293T, COS-7, and CHO cells were cultured in a medium consisting of 90% DMEM, 10% FBS, 100 U/mL penicillin, and 100 μg/ml Streptomycin. GlutaMAX (Gibco 35050-061) was also added for CHO cells. For calcium imaging, the cells were plated on glass coverslips coated with poly-D-lysine (0.5 mg/ml, Stoughton, Mass.). In the HEK cell studies the denominator is the cells expressing both TRPA1, TRPV1, and the designated constructs (i.e. Tmem100 or Tmem100-3Q mutant). mCherry:TRPV1:Tmem100 was transfected in 1:8:8 ratio into TRPA1 stable cell line (obtained from N. Tigue from GlaxoSmithKline) and used mCherry as the marker for the cells expressing the constructs 18 hours after transfection with Lipofectamine 2000. The transfection efficiency for Tmem100+TRPV1+TRPA1 triple-positive cells is 27±3%. This efficiency was determined by mCherry(+) divided by total number of cells in the bright fields.
The sequence from the last 28 amino acids of the C-terminus of the Tmem100-3Q mutant protein was synthesized and myristoylated at its N-terminus (myr-[…]-COOH) (SEQ ID NO: 8) by Twentyfirst Century Biochemicals. […] For the calcium imaging assay, the peptides were added to the calcium imaging buffer with a final concentration of 200 nM and incubated for at least […] at room temperature. For the mice behavioral assays, the peptides (5 μL, 2 mM) were injected subcutaneously in the hindpaw at least 30 minutes before testing. For the rat behavior assays, human T100-3Q (h-T100), a palmitoylated cell permeable peptide mutated based on the C terminus of human sequence in Tmem100, was applied. The sequence is Palmitoyl-[…]-COOH (SEQ ID NO: 7).

Molecule | percentage of cells responsive to MO (peptide 200 nM pre-treatment, 500 nM MO, HEK293T TRPA1+TRPV1) | percentage of cells that respond to 100 nM MO and 10 μM CA (HEK293T TRPA1+TRPV1, Tmem100-3Q-transfected vs lacking Tmem100-3Q)
myr-QRVLEQVLQNWSRRANVKQAQKFQVKCT-COOH (Myristoyl-QRVLEQVLQNWSRRANVKQAQKFQVKCT-OH; SMILES CCCCCCCCCCCCCC(=O)N[C@@H](CCC(N)=O)C(=O)N[C@@H](CCCNC(=N)N)C(=O)N[C@H](C(=O)N[C@@H](CC(C)C)C(=O)N[C@@H](CCC(=O)O)C(=O)N[C@@H](CCC(N)=O)C(=O)N[C@H](C(=O)N[C@@H](CC(C)C)C(=O)N[C@@H](CCC(N)=O)C(=O)N[C@@H](CC(N)=O)C(=O)N[C@@H](Cc1c[nH]c2ccccc12)C(=O)N[C@@H](CO)C(=O)N[C@@H](CCCNC(=N)N)C(=O)N[C@@H](CCCNC(=N)N)C(=O)N[C@@H](C)C(=O)N[C@@H](CC(N)=O)C(=O)N[C@H](C(=O)N[C@@H](CCCCN)C(=O)N[C@@H](CCC(N)=O)C(=O)N[C@@H](C)C(=O)N[C@@H](CCC(N)=O)C(=O)N[C@@H](CCCCN)C(=O)N[C@@H](Cc1ccccc1)C(=O)N[C@@H](CCC(N)=O)C(=O)N[C@H](C(=O)N[C@@H](CCCCN)C(=O)N[C@@H](CS)C(=O)N[C@H](C(=O)O)[C@@H](C)O)C(C)C)C(C)C)C(C)C)C(C)C) [scrambled] | 18±2.8% | –
B1 | – | significantly lower
